Measurements reported in article PMC6395926, “Mass Balance and Drug Interaction Potential of Intravenous Eravacycline Administered to Healthy Subjects” (Antimicrobial Agents and Chemotherapy, 2019).
Read-outs that look alike come from different tables or passages of the source.

Assays:
[1] = Mass balance study: excretion of radioactivity in urine and feces after i.v. [14C]eravacycline; assay type: in vivo, human; details: 60 mg [14C]eravacycline i.v.
Excerpt: (ii) Study design. This was a single-center, open-label study of a single i.v. dose of [^14C]eravacycline to assess the mass balance recovery and PK of eravacycline. The primary objectives were to determine mass balance recovery, determine routes and rates of excretion, provide metabolite profiling and structural identification, and assess the PK of radioactivity in plasma and whole blood. Subjects were screened for inclusion in the study, including a detailed medical history, physical examination, and laboratory evaluations, in the 28 days before dosing. […] After an overnight fast, each subject received 60 mg [^14C]eravacycline containing not more than 3.8 MBq (105 μCi) ^14C as a single i.v. infusion over 60 min.
(v) Excretion of radioactivity. Mass balance was determined from the incremental amount and cumulative amount excreted in urine, feces, and urine and feces combined. Amount excreted and amount excreted expressed as a percentage of administered dose were determined for urine, feces, and total samples.

[2] = design: species or system human; details: in vivo
Method: (§1) (iii) Study assessments. Blood samples for PK analysis of eravacycline and its metabolites, TP-498, TP-6208, and TP-034, were collected predose and 1, 2, 4, 6, 8, 12, 24, 36, and 48 h after the start of the i.v. infusion on day 1 and day 10 (itraconazole) or day 1 and day 17 (rifampin). Safety assessments included AEs, clinical laboratory safety tests (hematology, serum chemistry, electrolytes, coagulation, urinalysis, and lipid profile), vital signs, physical examinations, and 12-lead ECG.

[3] = Mass balance study: PK of total radioactivity in whole blood and plasma; assay type: in vivo, human; details: for Cmax, total radioactivity: geometric mean (%CV), n = 5
Excerpt: (ii) Study design. This was a single-center, open-label study of a single i.v. dose of [^14C]eravacycline to assess the mass balance recovery and PK of eravacycline. The primary objectives were to determine mass balance recovery, determine routes and rates of excretion, provide metabolite profiling and structural identification, and assess the PK of radioactivity in plasma and whole blood. Subjects were screened for inclusion in the study, including a detailed medical history, physical examination, and laboratory evaluations, in the 28 days before dosing. Eligible subjects were admitted to the clinical study unit at approximately 21:00 on the evening prior to study drug administration (day −1) and remained on site until 240 h postdose for collection of urine, feces, and blood samples. After an overnight fast, each subject received 60 mg [^14C]eravacycline containing not more than 3.8 MBq (105 μCi) ^14C as a single i.v. infusion over 60 min.
(iv) Determination of radioactivity. […] Plasma and whole-blood concentrations of total radioactivity were determined using an analytical method at Quotient Bioresearch (Rushden, Northamptonshire, UK). The lower limit of quantification (LLOQ) for total radioactivity was 11 to 13 ng equivalents (equiv)/ml in plasma and 41 to 46 ng equiv/g in whole blood.
(vi) Study assessments. PK parameters were determined for total radioactivity in plasma and whole blood. Eravacycline, TP-498, and TP-6208 concentrations in plasma were quantified using a validated assay with internal standards. […]
(viii) Study analysis. Descriptive statistics (mean, median, standard deviation [SD], percent coefficient of variation [%CV], minimum, maximum, number, geometric mean, and geometric %CV) were calculated for all concentration data. Pharmacokinetic parameters were calculated using Phoenix WinNonlin v6.3 (Certera USA, Inc.).

[4] = Itraconazole drug interaction study: safety/tolerability; assay type: in vivo, human
Method: as §1

[5] = Drug interaction study with rifampin (CYP3A4 inducer): plasma PK of i.v. eravacycline and metabolites; assay type: in vivo; details: human, intravenous, day 17, eravacycline plus rifampin, read-out: AUC0–t (distribution, as worded in the text)
[6] = design: method as in PMID 30150464; details: healthy volunteers, i.v. 1 mg/kg q12h for 10 days; cited from earlier work

Renal excretion, share of the dose [1]: approximately 34%
total radioactivity recovered in the feces [1]: 47.8%
total radioactive dose recovered in the urine and feces ([1]; 288-h collection period): 82.8%
share of the dose recovered within the first 72 h ([1]; urine and feces): Approximately half
Cmax, total radioactivity ([3]; plasma): 893 (18.0) ng equiv/ml
time postdose total radioactivity remained quantifiable ([3]; plasma, majority of subjects): up to 241 h
Cmax, total radioactivity ([3]; whole blood): 911 (14.5) ng equiv/ml
AUC(0-t) [5]: 3090 ng·h/mL
SMILES: CN(C)[C@@H]1C(O)=C(C(N)=O)C(=O)[C@@]2(O)C(O)=C3C(=O)c4c(O)c(NC(=O)CN5CCCC5)cc(F)c4C[C@H]3C[C@@H]12 [eravacycline]
subjects who experienced an AE ([2]; human, iv): 25.0%
serious AEs or discontinuations for AEs related to study drug [2]: No serious AEs
subjects who experienced an AE ([4]; eravacycline i.v. plus itraconazole treatment period, 1 of 10 subjects): 10.0%
subjects who experienced an AE ([4]; eravacycline i.v. treatment period, 1 of 12 subjects): 8.3%
serious AEs or discontinuations for AEs related to study drug ([4]; itraconazole study): No serious AEs
AUC0–12 [6]: 6,309 ng·h/ml
clearance (CL) [6]: 2.67 mL/min/kg
mean peak plasma concentration (Cmax) [6]: 1,825 ng/ml
volume of distribution at steady state (Vss) [6]: 4.0 L/kg
